biological target: T1, EZH2 within the PRC2 complex (Homo sapiens, UniProt Q15910); experiment: EZH2 methyltransferase scintillation proximity assay (SPA); assay type: biochemical; settings: Human PRC2 5 member complex (FLAG-EZH2, EED, SUZ12, RbAp48, AEBP2), biotinylated histone H3K27 peptide, 3H-SAM, 60 min room temperature; ≤10 nM approaches limit of detection
T1 construct: FLAG; made in house; host or cells: Sf9 cells
Method: Compounds contained herein were evaluated for their ability to inhibit the methyltransferase activity of EZH2 within the PRC2 complex. Human PRC2 complex was prepared by co-expressing each of the 5 member proteins (FLAG-EZH2, EED, SUZ12, RbAp48, AEBP2) in Sf9 cells followed by co-purification. Enzyme activity was measured in a scintillation proximity assay (SPA) where a tritiated methyl group is transferred from 3H-SAM to a lysine residue on a biotinylated, unmethylated peptide substrate derived from histone H3. The peptides were captured on streptavidin-coated SPA beads and the resulting signal was read on a ViewLux plate reader.
• 1. Prepare 10 mM stock of compounds from solid in 100% DMSO. • 2. Set up an 11-point serial dilution (1:4 dilution, top concentration 10 mM) in 100% DMSO for each test compound in a 384 well plate leaving columns 6 and 18 for DMSO controls. • 3. Dispense 10 nL of compound from the dilution plate into reaction plates (Corning, 384-well polystyrene NBS, Cat# 3673).
• 1. 1× Base Buffer, 50 mM Tris-HCl, pH 8, 2 mM MgCl2: Per 1 L of base buffer, combine 1 M Tris-HCl, pH 8 (50 mL), 1 M MgCl2 (2 mL), and distilled water (948 mL). • 2. 1× Assay Buffer: Per 10 mL of 1× Assay Buffer, combine 1× Base Buffer (9.96 mL), 1 M DTT (40 uL), and 10% Tween-20 (1 uL) to provide a final concentration of 50 mM Tris-HCl, pH 8, 2 mM MgCl2, 4 mM DTT, 0.001% Tween-20. • 3. 2× Enzyme Solution: Per 10 mL of 2× Enzyme Solution, combine 1× Assay Buffer (9.99 mL) and 3.24 uM EZH2 5 member complex (6.17 uL) to provide a final enzyme concentration of 1 nM. • 4. SPA Bead Solution: Per 1 mL of SPA Bead Solution, combine Streptavidin coated SPA beads (PerkinElmer, Cat #RPNQ0261, 40 mg) and 1× Assay Buffer (1 mL) to provide a working concentration of 40 mg/mL. • 5. 2× Substrate Solution: Per 10 mL of 2× Substrate Solution, combine 40 mg/mL SPA Bead Solution (375 uL), 1 mM biotinylated histone H3K27 peptide (200 uL), 12.5 uM 3H-SAM (240 uL; 1 mCi/mL), 1 mM cold SAM (57 uL), and 1× Assay Buffer (9.13 mL) to provide a final concentration of 0.75 mg/mL SPA Bead Solution, 10 uM biotinylated histone H3K27 peptide, 0.15 uM 3H-SAM (˜12 uCi/mL 3H-SAM), and 2.85 uM cold SAM. • 6. 2.67× Quench Solution: Per 10 mL of 2.67× Quench Solution, combine 1 Assay Buffer (9.73 mL) and 10 mM cold SAM (267 uL) to provide a final concentration of 100 uM cold SAM.
• 1. Stamp 10 nL/well of 1000× Compound to test wells (as noted above). • 2. Stamp 10 nL/well of 100% DMSO to columns 6 & 18 (high and low controls, respectively).
• 1. Dispense 5 uL/well of 1× Assay Buffer to column 18 (low control reactions). • 2. Dispense 5 uL/well of 2× Substrate Solution to columns 1-24 (note: substrate solution should be mixed to ensure homogeneous bead suspension before dispensing into matrix reservoir). • 3. Dispense 5 uL/well of 2× Enzyme Solution to columns 1-17, 19-24. • 4. Incubate the reaction for 60 min at room temperature.
• 1. Dispense 6 uL/well of the 2.67× Quench Solution to columns 1-24. • 2. Seal assay plates and spin for ˜1 min at 500 rpm. • 3. Dark adapt plates in the ViewLux instrument for 15-60 min. Read plates • 1. Read the assay plates on the Viewlux Plate Reader utilizing the 613 nm emission filter or clear filter (300 s exposure). • Reagent addition can be done manually or with automated liquid handler.
Percent inhibition was calculated relative to the DMSO control for each compound concentration and the resulting values were fit using standard IC50 fitting parameters within the ABASE data fitting software package.

T1 sequence (Q15910 whole entry): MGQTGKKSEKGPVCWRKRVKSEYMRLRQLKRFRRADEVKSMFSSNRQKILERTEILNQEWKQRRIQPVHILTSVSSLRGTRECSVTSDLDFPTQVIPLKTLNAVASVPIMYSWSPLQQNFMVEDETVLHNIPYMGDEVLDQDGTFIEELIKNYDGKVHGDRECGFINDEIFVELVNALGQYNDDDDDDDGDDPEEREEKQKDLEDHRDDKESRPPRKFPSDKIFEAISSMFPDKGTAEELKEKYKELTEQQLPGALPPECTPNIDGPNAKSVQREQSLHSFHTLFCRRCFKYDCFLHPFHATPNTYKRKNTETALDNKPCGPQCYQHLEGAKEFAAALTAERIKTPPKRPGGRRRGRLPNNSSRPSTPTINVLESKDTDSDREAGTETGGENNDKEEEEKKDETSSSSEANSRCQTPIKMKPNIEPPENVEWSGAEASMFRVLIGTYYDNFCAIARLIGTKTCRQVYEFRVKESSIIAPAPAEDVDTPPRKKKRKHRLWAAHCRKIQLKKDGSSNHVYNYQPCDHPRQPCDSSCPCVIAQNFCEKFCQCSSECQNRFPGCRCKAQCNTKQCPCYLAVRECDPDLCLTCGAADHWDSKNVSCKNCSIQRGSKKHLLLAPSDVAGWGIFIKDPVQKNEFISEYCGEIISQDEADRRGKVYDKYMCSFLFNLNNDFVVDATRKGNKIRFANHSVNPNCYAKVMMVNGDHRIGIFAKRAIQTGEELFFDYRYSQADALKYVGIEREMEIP
T1 sequence (O75530 whole entry partner): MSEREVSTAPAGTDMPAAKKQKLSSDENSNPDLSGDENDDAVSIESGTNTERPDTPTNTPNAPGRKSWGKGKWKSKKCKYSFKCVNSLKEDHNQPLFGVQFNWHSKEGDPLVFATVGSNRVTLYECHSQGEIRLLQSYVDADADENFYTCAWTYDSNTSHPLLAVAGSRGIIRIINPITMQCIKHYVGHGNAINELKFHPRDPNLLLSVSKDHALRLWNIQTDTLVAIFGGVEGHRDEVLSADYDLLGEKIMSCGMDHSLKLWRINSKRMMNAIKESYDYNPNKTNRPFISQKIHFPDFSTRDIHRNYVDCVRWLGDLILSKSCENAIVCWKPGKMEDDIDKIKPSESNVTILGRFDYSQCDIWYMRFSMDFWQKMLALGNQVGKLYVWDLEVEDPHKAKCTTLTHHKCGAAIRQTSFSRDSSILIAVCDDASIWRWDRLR
T1 sequence (Q15022 whole entry partner): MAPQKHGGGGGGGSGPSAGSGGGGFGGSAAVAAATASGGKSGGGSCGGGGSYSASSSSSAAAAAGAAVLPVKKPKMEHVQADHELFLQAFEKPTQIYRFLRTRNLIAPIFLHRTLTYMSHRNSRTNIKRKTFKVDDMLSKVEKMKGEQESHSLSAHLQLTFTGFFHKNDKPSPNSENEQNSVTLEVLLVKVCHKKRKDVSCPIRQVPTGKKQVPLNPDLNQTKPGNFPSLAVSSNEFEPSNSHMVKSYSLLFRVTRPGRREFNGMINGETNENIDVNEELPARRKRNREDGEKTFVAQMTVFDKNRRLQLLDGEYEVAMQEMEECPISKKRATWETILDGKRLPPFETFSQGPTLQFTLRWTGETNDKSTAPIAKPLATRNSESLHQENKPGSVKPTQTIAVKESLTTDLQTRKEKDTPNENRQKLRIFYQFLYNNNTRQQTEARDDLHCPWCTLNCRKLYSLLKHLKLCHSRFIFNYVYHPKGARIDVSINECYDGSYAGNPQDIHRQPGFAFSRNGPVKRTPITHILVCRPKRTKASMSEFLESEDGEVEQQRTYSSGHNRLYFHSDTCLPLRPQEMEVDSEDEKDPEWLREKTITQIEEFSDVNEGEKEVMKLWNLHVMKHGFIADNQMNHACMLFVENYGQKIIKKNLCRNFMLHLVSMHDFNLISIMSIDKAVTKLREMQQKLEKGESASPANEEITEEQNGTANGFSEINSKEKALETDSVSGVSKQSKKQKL
T1 sequence (Q09028 whole entry partner): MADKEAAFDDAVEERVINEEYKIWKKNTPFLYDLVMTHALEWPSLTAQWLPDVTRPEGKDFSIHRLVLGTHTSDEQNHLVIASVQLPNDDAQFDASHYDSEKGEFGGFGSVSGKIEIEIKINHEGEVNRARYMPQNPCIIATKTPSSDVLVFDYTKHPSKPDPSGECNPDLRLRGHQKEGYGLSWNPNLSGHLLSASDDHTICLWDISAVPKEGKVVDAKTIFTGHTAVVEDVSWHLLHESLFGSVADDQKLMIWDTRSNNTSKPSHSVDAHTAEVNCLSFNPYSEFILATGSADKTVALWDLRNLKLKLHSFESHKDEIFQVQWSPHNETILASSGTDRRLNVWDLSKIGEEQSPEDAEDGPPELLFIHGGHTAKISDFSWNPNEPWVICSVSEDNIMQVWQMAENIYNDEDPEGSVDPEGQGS
T1 sequence (Q6ZN18 whole entry partner): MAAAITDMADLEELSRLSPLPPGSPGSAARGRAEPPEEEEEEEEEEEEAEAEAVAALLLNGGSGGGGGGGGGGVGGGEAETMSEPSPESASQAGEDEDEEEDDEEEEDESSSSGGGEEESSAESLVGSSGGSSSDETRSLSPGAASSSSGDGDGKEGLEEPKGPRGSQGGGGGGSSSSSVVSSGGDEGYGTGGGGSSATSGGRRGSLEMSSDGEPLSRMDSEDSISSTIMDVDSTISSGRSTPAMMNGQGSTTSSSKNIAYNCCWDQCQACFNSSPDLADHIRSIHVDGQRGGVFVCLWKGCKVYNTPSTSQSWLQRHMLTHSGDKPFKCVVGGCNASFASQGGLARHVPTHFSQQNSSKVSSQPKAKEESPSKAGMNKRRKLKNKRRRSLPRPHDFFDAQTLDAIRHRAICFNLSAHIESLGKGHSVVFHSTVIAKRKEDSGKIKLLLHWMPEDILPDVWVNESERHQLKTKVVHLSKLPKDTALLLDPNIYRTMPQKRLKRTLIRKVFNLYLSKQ

Row | IC50 | SMILES
1 | ≤ 10 nM | CC[C@@H](c1sc2c(c1C)C(=O)N(Cc1c(C)cc(C)[nH]c1=O)CC2)C1CCN(Cc2ccccn2)CC1 [Example 1, (R)-5-((4,6-dimethyl-2-oxo-1,2-dihydropyridin-3-yl)methyl)-3-methyl-2-(1-(1-(pyridin-2-ylmethyl)piperidin-4-yl)propyl)-6,7-dihydrothieno[3,2-c]pyridin-4(5H)-one]
2 | ≤ 10 nM | CC[C@@H](c1sc2c(c1C)C(=O)N(Cc1c(C)cc(C)[nH]c1=O)CC2)C1CCN(Cc2ccccc2)CC1 [Example 2, (R)-2-(1-(1-Benzylpiperidin-4-yl)propyl)-5-((4,6-dimethyl-2-oxo-1,2-dihydropyridin-3-yl)methyl)-3-methyl-6,7-dihydrothieno[3,2-c]pyridin-4(5H)-one]
3 | ≤ 10 nM | CC[C@@H](c1sc2c(c1C)C(=O)N(Cc1c(C)cc(C)[nH]c1=O)CC2)C1CCN(Cc2ccncc2)CC1 [Example 3, (R)-5-((4,6-Dimethyl-2-oxo-1,2-dihydropyridin-3-yl)methyl)-3-methyl-2-(1-(1-(pyridin-4-ylmethyl)piperidin-4-yl)propyl)-6,7-dihydrothieno[3,2-c]pyridin-4(5H)-one]
4 | ≤ 10 nM | CC[C@@H](c1sc2c(c1C)C(=O)N(Cc1c(C)cc(C)[nH]c1=O)CC2)C1CCN(Cc2ccc(Cl)cn2)CC1 [Example 4, (R)-2-(1-(1-((5-Chloropyridin-2-yl)methyl)piperidin-4-yl)propyl)-5-((4,6-dimethyl-2-oxo-1,2-dihydropyridin-3-yl)methyl)-3-methyl-6,7-dihydrothieno[3,2-c]pyridin-4(5H)-one]
5 | ≤ 10 nM | CCC(=C1CCN(Cc2ccnc(OC)c2)CC1)c1scc(C(=O)NCc2c(C)cc(C)[nH]c2=O)c1C [Example 5, N-((4,6-Dimethyl-2-oxo-1,2-dihydropyridin-3-yl)methyl)-5-(1-(1-((2-methoxypyridin-4-yl)methyl)piperidin-4-ylidene)propyl)-4-methylthiophene-3-carboxamide]
6 | ≤ 10 nM | Cc1cc(C)c(CN2CCCc3sc([C@H](C)C4CCN(Cc5ccccn5)CC4)c(C)c3C2=O)c(=O)[nH]1 [Example 6, (R)-5-((4,6-Dimethyl-2-oxo-1,2-dihydropyridin-3-yl)methyl)-3-methyl-2-(1-(1-(pyridin-2-ylmethyl)piperidin-4-yl)ethyl)-5,6,7,8-tetrahydro-4H-thieno[3,2-c]azepin-4-one]
7 | ≤ 10 nM | COc1cc(CN2CCC([C@@H](C)c3sc4c(c3C)C(=O)N(Cc3c(C)cc(C)[nH]c3=O)CCC4)CC2)ccn1 [Example 7, (R)-5-((4,6-Dimethyl-2-oxo-1,2-dihydropyridin-3-yl)methyl)-2-(1-(1-((2-methoxypyridin-4-yl)methyl)piperidin-4-yl)ethyl)-3-methyl-5,6,7,8-tetrahydro-4H-thieno[3,2-c]azepin-4-one]
8 | ≤ 10 nM | Cc1cc(C)c(CN2CCCc3sc([C@H](C)C4CCN(Cc5ccc(Cl)cn5)CC4)c(C)c3C2=O)c(=O)[nH]1 [Example 8]
9 | ≤ 10 nM | Cc1cccc(CN2CCC([C@@H](C)c3sc4c(c3C)C(=O)N(Cc3c(C)cc(C)[nH]c3=O)CCC4)CC2)n1 [Example 9, (R)-5-((4,6-Dimethyl-2-oxo-1,2-dihydropyridin-3-yl)methyl)-3-methyl-2-(1-(1-((6-methylpyridin-2-yl)methyl)piperidin-4-yl)ethyl)-5,6,7,8-tetrahydro-4H-thieno[3,2-c]azepin-4-one]
10 | ≤ 10 nM | Cc1cc(C)c(CN2CCCc3sc([C@H](C)C4CCN(Cc5ccccc5)CC4)c(C)c3C2=O)c(=O)[nH]1 [Example 10, (R)-2-(1-(1-Benzylpiperidin-4-yl)ethyl)-5-((4,6-dimethyl-2-oxo-1,2-dihydropyridin-3-yl)methyl)-3-methyl-5,6,7,8-tetrahydro-4H-thieno[3,2-c]azepin-4-one]
11 | ≤ 10 nM | COc1cc(CN2CCC([C@@H](C)c3sc4c(c3C)C(=O)N(Cc3c(C)cc(C)[nH]c3=O)CC4)CC2)ccn1 [Example 11, (R)-5-((4,6-Dimethyl-2-oxo-1,2-dihydropyridin-3-yl)methyl)-2-(1-(1-((2-methoxypyridin-4-yl)methyl)piperidin-4-yl)ethyl)-3-methyl-6,7-dihydrothieno[3,2-c]pyridin-4(5H)-one]
12 | ≤ 10 nM | COc1cccc(CN2CCC([C@@H](C)c3sc4c(c3C)C(=O)N(Cc3c(C)cc(C)[nH]c3=O)CCC4)CC2)n1 [Example 12, (R)-5-((4,6-Dimethyl-2-oxo-1,2-dihydropyridin-3-yl)methyl)-2-(1-(1-((6-methoxypyridin-2-yl)methyl)piperidin-4-yl)ethyl)-3-methyl-5,6,7,8-tetrahydro-4H-thieno[3,2-c]azepin-4-one]
13 | ≤ 10 nM | Cc1cc(C)c(CN2CCCc3sc([C@H](C)C4CCN(CC5CCCCC5)CC4)c(C)c3C2=O)c(=O)[nH]1 [Example 13, (R)-2-(1-(1-(cyclohexylmethyl)piperidin-4-yl)ethyl)-5-((4,6-dimethyl-2-oxo-1,2-dihydropyridin-3-yl)methyl)-3-methyl-5,6,7,8-tetrahydro-4H-thieno[3,2-c]azepin-4-one]
14 | ≤ 10 nM | Cc1cc(C)c(CN2CCCc3sc([C@H](C)C4CCN(CC5(C)CCCCC5)CC4)c(C)c3C2=O)c(=O)[nH]1 [Example 14, (R)-5-((4,6-Dimethyl-2-oxo-1,2-dihydropyridin-3-yl)methyl)-3-methyl-2-(1-(1-((1-methylcyclohexyl)methyl)piperidin-4-yl)ethyl)-5,6,7,8-tetrahydro-4H-thieno[3,2-c]azepin-4-one]

— patent US20180162845A1, “ENHANCER OF ZESTE HOMOLOG 2 INHIBITORS” (GLAXOSMITHKLINE INTELLECTUAL PROPERTY (NO.2) LIMITED, priority 2015, published 2018)
